Laboratory results taken from patent US20240270744A1 (Hoffmann-La Roche Inc., priority 2021, published 2024).
pKi: −log10 of the molar value. Read-outs that look alike come from different tables or passages of the source.

Legend:
[1] = biological target: human GABAA α1β2γ1 receptor (Homo sapiens (Human), UniProt P14867+Q8N1C3); experiment: Radioligand binding assay, competition for [3H]RO7239181, γ1-containing GABAA subtypes
[2] = biological target: human GABAA α1β3γ2 receptor (Homo sapiens (Human), UniProt P14867+P18507); experiment: Radioligand binding assay, competition for [3H]Flumazenil, γ2-containing GABAA subtypes; conditions: read-out: Ki h-GABAA α1β3γ2
Protocol: The affinity of compounds at GABAA γ2 subunit-containing receptors was measured by competition for [^3H]Flumazenil (81.1 Ci/mmol; Roche) binding to HEK293F cells expressing human (transiently transfected) receptors of composition α1β3γ2.
Harvested pellets from HEK293F cells expressing the different GABAA γ2 receptor subtypes were resuspended in Mannitol Buffer pH 7.2-7.4 and processed as described above for the cells expressing the GABAA γ1 subunit-containing receptors.
Assays were incubated to equilibrium for 1 hour at 4° C. and harvested onto GF/C uni-filters (Packard) by filtration using a Packard harvester and washing with ice-cold wash buffer (50 mM Tris; pH 7.5). After anhydrousing, filter-retained radioactivity was detected by liquid scintillation counting. Ki values were calculated using Excel-Fit (Microsoft) and are the means of two determinations.

h-GABA-A α2β2γ1 = h-GABA-A α2β2γ1 (Homo sapiens (Human), UniProt P47869+Q8N1C3); experiment: Two-electrode voltage clamp electrophysiology in Xenopus oocytes expressing GABAA receptors; format: cell-based; conditions: Table 2; for Efficacy (GABA) %: % modulation of GABA EC20 = 100*(Fold increase-1), compound at 30-fold Ki; for Fold increase h-GABA-A α2β2γ1 oocyte @ 30-fold Ki: GABA EC20, test compound at approx. 30-fold its Ki α2β2γ1, Xenopus oocytes, -80 mV
Protocol: Xenopus laevis oocytes at maturation stages V-VI were used for the expression of cloned mRNA encoding GABAA receptor subunits. Oocytes ready for RNA micro-injection were bought from Ecocyte, Castrop-Rauxel, Germany and stored in modified Barth's medium (composition in mM: NaCl 88, KCl 1, NaHCO3 2.4, HEPES 10, MgSO4 0.82, CaNO3 0.33, CaCl2 0.33, pH=7.5) at 20° C. until the experiment.
Oocytes were plated in 96-well plates for microinjection using the Roboinject automated instrument (MultiChannelSystems, Reutlingen, Germany). Approximately 50 nL of an aqueous solution containing the RNA transcripts for the subunits of the desired GABAA receptor subtype was injected into each oocyte. […] Oocytes were kept in modified Barth's medium (composition in mM: NaCl 88, KCl 1, NaHCO3 […], HEPES 10, MgSO4 0.82, CaNO3 0.33, CaCl2 0.33, pH=7.5) at 20° C. until the experiment.
Electrophysiological experiments were performed using the Roboocyte instrument (MultiChannelSystems, Reutlingen, Germany) on days 3 to 5 after the micro-injection of mRNA. During the experiment the oocytes were constantly superfused by a solution containing (in mM) NaCl 90, KCl 1, HEPES 5, MgCl2 1, CaCl2 1 (pH 7.4). Oocytes were impaled by two glass microelectrodes (resistance: […]) which were filled with a solution containing KCl 1M+K-acetate 1.5 M and voltage-clamped to −80 mV. The recordings were performed at room temperature using the Roboocyte two-electrode voltage clamp system (Multichannelsystem). After an initial equilibration period of 1.5 min GABA was added for 1.5 min at a concentration evoking approximately 20% of a maximal current response (EC20). After another rest interval of 2.5 min GABA was again added evoking a response of similar amplitude and shape. […] Current traces were recorded at a digitization rate of 10 Hz during and shortly before and after the GABA application.
Each compound and concentration was tested on at least 3 oocytes. Different oocytes were used for different compound concentrations.
For the analysis, the digitized current traces of the first and second GABA response were superimposed and, if necessary, rescaled to equal maximal amplitudes. The ratio between the two responses during the time interval of test compound application was calculated point by point. The extremum of the resulting “ratio trace” was taken as the efficacy (“Fold increase”) of the compound expressed as “% modulation of GABA EC20” (100*(Fold increase−1)).

[3] = Table 1, [3H]RO7239181 displacement, membranes from HEK293F cells, mean of two determinations
[4] = Table 1, [3H]Flumazenil displacement, HEK293F cells, mean of two determinations
[5] = Table 3, reference compounds comparison

Compound	pKi [1, 3]	pKi [2, 4]	Efficacy (GABA) % (h-GABA-A α2β2γ1) [%]	Fold increase h-GABA-A α2β2γ1 oocyte @ 30-fold Ki (h-GABA-A α2β2γ1)	pKi [1, 5]	pKi [2, 5]
C[C@@H]1N=C(c2c(F)cccc2F)c2c(cnc(C(F)(F)F)c2Cl)-n2nc(C(=O)N3CC(O)C3)nc21 [Example 8, [(7S)-11-chloro-9-(2,6-difluorophenyl)-7-methyl-12-(trifluoromethyl)-2,3,5,8,13-pentazatricyclo[8.4.0.02,6]tetradeca-1(10),3,5,8,11,13-hexaen-4-yl]-(3-hydroxyazetidin-1-yl)methanone]	7.31	5.43	114	2.14		
Cc1nnc2n1-c1cnc(Cl)c(Cl)c1C(c1c(F)cccc1F)=N[C@H]2C [Example 1, (7S)-11,12-dichloro-9-(2,6-difluorophenyl)-3,7-dimethyl-2,4,5,8,13-pentazatricyclo[8.4.0.02,6]tetradeca-1(10),3,5,8,11,13-hexaene]		5.96	55	1.55		
C[C@@H]1N=C(c2c(F)cccc2F)c2c(cnc(C(F)(F)F)c2Cl)-n2nc(N3CCCC3=O)nc21 [Example 13, 1-[(7S)-11-chloro-9-(2,6-difluorophenyl)-7-methyl-12-(trifluoromethyl)-2,3,5,8,13-pentazatricyclo[8.4.0.02,6]tetradeca-1(10),3,5,8,11,13-hexaen-4-yl]pyrrolidin-2-one]		5.28	173	2.73		
Cc1nnc2n1-c1cnc(C(F)(F)F)c(Cl)c1C(c1c(F)cccc1F)=N[C@H]2C [Example 4, (7S)-11-chloro-9-(2,6-difluorophenyl)-3,7-dimethyl-12-(trifluoromethyl)-2,4,5,8,13-pentazatricyclo[8.4.0.02,6]tetradeca-1(10),3,5,8,11,13-hexaene]	7.29	5.14	116	2.16	7.29	5.14
COC1CN(C(=O)c2nc3n(n2)-c2cnc(C(F)(F)F)c(Cl)c2C(c2c(F)cccc2F)=N[C@H]3C)C1 [Example 9, [(7S)-11-chloro-9-(2,6-difluorophenyl)-7-methyl-12-(trifluoromethyl)-2,3,5,8,13-pentazatricyclo[8.4.0.02,6]tetradeca-1(10),3,5,8,11,13-hexaen-4-yl]-(3-methoxyazetidin-1-yl)methanone]	7.34	5.47	87	1.87		
C[C@@H]1N=C(c2c(F)cccc2F)c2c(cnc(C(F)(F)F)c2Cl)-n2nc(C(=O)N3CC(F)C3)nc21 [Example 7, [(7S)-11-chloro-9-(2,6-difluorophenyl)-7-methyl-12-(trifluoromethyl)-2,3,5,8,13-pentazatricyclo[8.4.0.02,6]tetradeca-1(10),3,5,8,11,13-hexaen-4-yl]-(3-fluoroazetidin-1-yl)methanone]		5.29	85	1.85		
C[C@@H]1N=C(c2c(F)cccc2F)c2c(cnc(C(F)(F)F)c2Cl)-n2nc(C(=O)NCC3(O)CC3)nc21 [Example 22, (7S)-11-chloro-9-(2,6-difluorophenyl)-N-[(1-hydroxycyclopropyl)methyl]-7-methyl-12-(trifluoromethyl)-2,3,5,8,13-pentazatricyclo[8.4.0.02,6]tetradeca-1(10),3,5,8,11,13-hexaene-4-carboxamide]		4.98	172	2.72		
C[C@@H]1N=C(c2c(F)cccc2F)c2c(cnc(C(F)(F)F)c2Cl)-n2c1nc1c2CCC1 [Example 20, (10S)-6-chloro-8-(2,6-difluorophenyl)-10-methyl-5-(trifluoromethyl)-1,4,9,12-tetrazatetracyclo[9.6.0.02,7.013,17]heptadeca-2(7),3,5,8,11,13(17)-hexaene]		5.96	108	2.08		
Cc1ncc2c(c1Cl)C(c1c(F)cccc1F)=N[C@@H](C)c1nnc(C)n1-2 [Example 3, (7S)-11-chloro-9-(2,6-difluorophenyl)-3,7,12-trimethyl-2,4,5,8,13-pentazatricyclo[8.4.0.02,6]tetradeca-1(10),3,5,8,11,13-hexaene]		5.75	66	1.66		
C[C@@H]1N=C(c2c(F)cccc2F)c2c(cnc(C(F)(F)F)c2Cl)-n2nc(C(=O)N3CCC3)nc21 [Example 6, azetidin-1-yl-[(7S)-11-chloro-9-(2,6-difluorophenyl)-7-methyl-12-(trifluoromethyl)-2,3,5,8,13-pentazatricyclo[8.4.0.02,6]tetradeca-1(10),3,5,8,11,13-hexaen-4-yl]methanone]		4.99	91	1.91		
C[C@@H]1N=C(c2c(F)cccc2F)c2c(cnc(C(F)(F)F)c2Cl)-n2nc(NC(=O)C3COC3)nc21 [Example 12, N-[(7S)-11-chloro-9-(2,6-difluorophenyl)-7-methyl-12-(trifluoromethyl)-2,3,5,8,13-pentazatricyclo[8.4.0.02,6]tetradeca-1(10),3,5,8,11,13-hexaen-4-yl]oxetane-3-carboxamide]		4.91	143	2.43		
Cc1nnc2n1-c1cnc(C3CC3)c(Cl)c1C(c1c(F)cccc1F)=N[C@H]2C [Example 2, (7S)-11-chloro-12-cyclopropyl-9-(2,6-difluorophenyl)-3,7-dimethyl-2,4,5,8,13-pentazatricyclo[8.4.0.02,6]tetradeca-1(10),3,5,8,11,13-hexaene]		5.48	162	2.62		
C[C@@H]1N=C(c2c(F)cccc2F)c2c(cnc(C(F)(F)F)c2Cl)-n2nc(C(=O)NCC(C)(C)O)nc21 [Example 21, (7S)-11-chloro-9-(2,6-difluorophenyl)-N-(2-hydroxy-2-methyl-propyl)-7-methyl-12-(trifluoromethyl)-2,3,5,8,13-pentazatricyclo[8.4.0.02,6]tetradeca-1(10),3,5,8,11,13-hexaene-4-carboxamide]		4.95	175	2.75		
Cc1nc2n(n1)-c1cnc(C(F)(F)F)c(Cl)c1C(c1c(F)cccc1F)=N[C@H]2C [Example 5]		5.32	84	1.84		
